This is an account of results in patent publication US20100234349A1, “PHARMACEUTICAL COMBINATIONS OF A NICOTINE RECEPTOR MODULATOR AND A COGNITIVE ENHANCER” (priority 2006, published 2010).

Entries after “also recorded” stand apart in the source; their conditions may differ.

This assay concerns mouse. The assay can be described thus: mouse marble burying paradigm. It is filed as in vivo. As to the method: FIGS. 3A-3D show mouse marble burying 15 minutes after s.c. dosing of 1-(3-Pyridyl)-homopiperazine (Compound 1F of WO 99/21834) as cognition enhancer, and 30 minutes after p.o. dosing of 3-(3-Pyridin-3-yl-[1,2,4]oxadiazol-5-yl)-benzonitrile (Compound 4.15) as positive allosteric modulator: […]

What is called ED50 is the midpoint of the dose-response relation.

With `c1cncc(N2CCCNCC2)c1` [Compound 1F of WO 99/21834, 1-(3-Pyridyl)-homopiperazine, reference compound], the ED50 (Mus musculus, sc, 0.25 h, read-out: ED50, mouse marble burying) stood at 0.56 mg/kg.

As for `N#Cc1cccc(-c2nc(-c3cccnc3)no2)c1` [Compound 4.15, 3-(3-Pyridin-3-yl-[1,2,4]oxadiazol-5-yl)-benzonitrile], for the setting “alone, dosed p.o. at 3 and 10 mg/kg, 30 minutes after dosing (FIG. 3A)”, the “effect in mouse marble burying, positive allosteric modulator alone” value is “no effect; also recorded: inactive”.
